The source made the active and inactive calls.
What was measured:
[1] = biological target: T1, RNA-binding protein pos-1 (Caenorhabditis elegans, UniProt G5EF15); assay: disruptors of C. elegans POS-1 RNA interaction – biochemical, fluorescence polarization, dose response (AID 1964);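 also: purified POS-1 fused to maltose binding protein made in E. coli; potency of compounds blocking POS-1 binding to fluorescent RNA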
T1 sequence (G5EF15 whole entry): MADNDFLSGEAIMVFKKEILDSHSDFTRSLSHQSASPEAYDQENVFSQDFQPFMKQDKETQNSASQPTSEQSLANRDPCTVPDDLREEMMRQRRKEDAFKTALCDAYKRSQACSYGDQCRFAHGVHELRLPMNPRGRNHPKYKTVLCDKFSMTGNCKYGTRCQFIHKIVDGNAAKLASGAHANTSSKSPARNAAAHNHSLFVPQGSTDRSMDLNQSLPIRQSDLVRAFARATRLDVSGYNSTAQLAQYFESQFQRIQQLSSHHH

Protein RecA = biological target: T2, Protein RecA (Mycobacterium tuberculosis, UniProt P9WHJ3); assay: Fluorescence Cell-Free Homogeneous Dose Retest to Identify Inhibitors of RecA-Intein Splicing Activity. [Related pubchem assays (depositor defined):AID2097, AID2223, AID489010, AID492950]; type: functional
T2 sequence (P9WHJ3 whole entry): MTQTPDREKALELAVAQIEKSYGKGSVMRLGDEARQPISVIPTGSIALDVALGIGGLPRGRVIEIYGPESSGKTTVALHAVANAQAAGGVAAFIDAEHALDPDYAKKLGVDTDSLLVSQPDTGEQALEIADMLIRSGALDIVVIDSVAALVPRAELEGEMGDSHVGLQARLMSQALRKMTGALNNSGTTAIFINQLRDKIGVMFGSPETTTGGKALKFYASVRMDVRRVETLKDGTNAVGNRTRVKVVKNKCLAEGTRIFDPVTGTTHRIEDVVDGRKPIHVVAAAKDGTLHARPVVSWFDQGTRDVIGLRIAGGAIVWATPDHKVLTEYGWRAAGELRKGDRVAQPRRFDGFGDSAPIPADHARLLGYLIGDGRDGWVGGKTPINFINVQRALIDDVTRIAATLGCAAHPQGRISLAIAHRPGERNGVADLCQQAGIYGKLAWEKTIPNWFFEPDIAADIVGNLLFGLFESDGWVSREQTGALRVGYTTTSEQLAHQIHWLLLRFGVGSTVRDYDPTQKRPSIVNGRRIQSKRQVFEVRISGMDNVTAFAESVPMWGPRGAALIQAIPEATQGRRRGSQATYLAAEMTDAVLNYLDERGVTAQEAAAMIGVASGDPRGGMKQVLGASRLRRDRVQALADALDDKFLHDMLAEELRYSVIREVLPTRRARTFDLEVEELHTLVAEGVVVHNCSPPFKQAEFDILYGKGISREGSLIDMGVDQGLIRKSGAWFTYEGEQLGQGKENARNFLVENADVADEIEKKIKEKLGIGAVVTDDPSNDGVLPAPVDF

Caspase-3 = biological target: T3, Caspase-3 (Homo sapiens, UniProt P42574); assay: Dose-response confirmation of uHTS inhibitor hits of Sentrin-Specific Protease 8 in a Caspase-3 Fluorescence assay.; type: functional
T3 sequence (P42574 whole entry): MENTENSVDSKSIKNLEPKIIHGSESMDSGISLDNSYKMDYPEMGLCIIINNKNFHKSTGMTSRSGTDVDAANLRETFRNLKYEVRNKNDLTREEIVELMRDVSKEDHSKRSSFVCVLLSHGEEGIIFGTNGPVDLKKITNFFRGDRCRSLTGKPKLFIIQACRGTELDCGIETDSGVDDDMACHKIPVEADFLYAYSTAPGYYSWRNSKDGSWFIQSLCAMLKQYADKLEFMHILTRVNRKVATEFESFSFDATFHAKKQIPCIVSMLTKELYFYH

Caspase-6 = biological target: T4, Caspase-6 (Homo sapiens, UniProt P55212); assay: inhibition of CASP6 peptide cleavage – biochemical, VEID-R110 fluorescence, cherry-pick, dose response (AID 720632)
T4 sequence (P55212 whole entry): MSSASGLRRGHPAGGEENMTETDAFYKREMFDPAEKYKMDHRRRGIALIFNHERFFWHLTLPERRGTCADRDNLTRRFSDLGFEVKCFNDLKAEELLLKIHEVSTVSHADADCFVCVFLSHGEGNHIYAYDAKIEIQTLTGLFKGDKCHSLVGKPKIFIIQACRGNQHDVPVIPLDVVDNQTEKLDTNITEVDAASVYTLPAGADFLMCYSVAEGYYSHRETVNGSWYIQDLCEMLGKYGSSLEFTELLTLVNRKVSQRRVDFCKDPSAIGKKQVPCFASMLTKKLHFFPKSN

[2] = biological target: Serine/threonine-protein kinase D3 (Homo sapiens, UniProt O94806); type: functional;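 also: determined within a kinase panel screen, with PRKCN as the panel member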
[3] = biological target: Mitogen-activated protein kinase 8 (Homo sapiens, UniProt P45983); type: functional;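 also: value comes from one member of a kinome-wide kinase profiling panel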
[4] = biological target: Serine/threonine-protein kinase pim-1 (Homo sapiens, UniProt P11309); type: functional
[5] = biological target: Fibroblast growth factor receptor 1 (Homo sapiens, UniProt P11362); type: functional
[6] = biological target: Mitogen-activated protein kinase 9 (Homo sapiens, UniProt P45984); type: functional;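 also: value from a kinome panel profiling assay, MAPK9 panel entry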
LIM domain kinase 1 = LIM domain kinase 1 (Homo sapiens, UniProt P53667); assay: Navigating the Kinome. Panel member name: LIMK1; type: functional
[7] = biological target: Platelet-derived growth factor receptor alpha (Homo sapiens, UniProt P16234); assay: Navigating the Kinome. Panel member name: PDGFRA; type: functional
[8] = biological target: cAMP-dependent protein kinase catalytic subunit alpha (Homo sapiens, UniProt P17612); type: functional
[9] = biological target: Dual specificity protein kinase CLK4 (Homo sapiens, UniProt Q9HAZ1); type: functional
[10] = biological target: Mitogen-activated protein kinase kinase kinase kinase 4 (Homo sapiens, UniProt O95819); type: functional
[11] = biological target: Macrophage colony-stimulating factor 1 receptor (Homo sapiens, UniProt P07333); type: functional;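 also: value comes from the Navigating the Kinome screening panel, CSF1R member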
[12] = biological target: Calcium/calmodulin-dependent protein kinase type II subunit alpha (Homo sapiens, UniProt Q9UQM7); assay: Navigating the Kinome. Panel member name: CAMK2A; type: functional
[13] = biological target: DNA dC->dU-editing enzyme APOBEC-3G (Homo sapiens, UniProt Q9HC16); assay: Dose Response confirmation of small molecule APOBEC3G DNA Deaminase Inhibitors via a fluorescence-based single-stranded DNA deaminase assay. [Related pubchem assays (depositor defined):AID493012, AID493028]; type: functional
[14] = biological target: T5, Sentrin-specific protease 8 (Homo sapiens, UniProt Q96LD8); type: functional;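 also: luminescence read-out of SENP8 inhibition, dose-response confirmation following an ultra-high-throughput screen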
T5 sequence (Q96LD8 whole entry): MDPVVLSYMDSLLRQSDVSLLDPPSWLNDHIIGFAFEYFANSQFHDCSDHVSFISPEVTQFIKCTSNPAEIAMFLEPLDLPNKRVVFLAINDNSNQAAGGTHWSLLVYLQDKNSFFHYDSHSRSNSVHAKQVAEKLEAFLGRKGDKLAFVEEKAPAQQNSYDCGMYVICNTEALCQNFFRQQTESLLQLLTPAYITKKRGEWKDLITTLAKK

Platelet-derived growth factor receptor alpha, sequence (P16234 whole entry): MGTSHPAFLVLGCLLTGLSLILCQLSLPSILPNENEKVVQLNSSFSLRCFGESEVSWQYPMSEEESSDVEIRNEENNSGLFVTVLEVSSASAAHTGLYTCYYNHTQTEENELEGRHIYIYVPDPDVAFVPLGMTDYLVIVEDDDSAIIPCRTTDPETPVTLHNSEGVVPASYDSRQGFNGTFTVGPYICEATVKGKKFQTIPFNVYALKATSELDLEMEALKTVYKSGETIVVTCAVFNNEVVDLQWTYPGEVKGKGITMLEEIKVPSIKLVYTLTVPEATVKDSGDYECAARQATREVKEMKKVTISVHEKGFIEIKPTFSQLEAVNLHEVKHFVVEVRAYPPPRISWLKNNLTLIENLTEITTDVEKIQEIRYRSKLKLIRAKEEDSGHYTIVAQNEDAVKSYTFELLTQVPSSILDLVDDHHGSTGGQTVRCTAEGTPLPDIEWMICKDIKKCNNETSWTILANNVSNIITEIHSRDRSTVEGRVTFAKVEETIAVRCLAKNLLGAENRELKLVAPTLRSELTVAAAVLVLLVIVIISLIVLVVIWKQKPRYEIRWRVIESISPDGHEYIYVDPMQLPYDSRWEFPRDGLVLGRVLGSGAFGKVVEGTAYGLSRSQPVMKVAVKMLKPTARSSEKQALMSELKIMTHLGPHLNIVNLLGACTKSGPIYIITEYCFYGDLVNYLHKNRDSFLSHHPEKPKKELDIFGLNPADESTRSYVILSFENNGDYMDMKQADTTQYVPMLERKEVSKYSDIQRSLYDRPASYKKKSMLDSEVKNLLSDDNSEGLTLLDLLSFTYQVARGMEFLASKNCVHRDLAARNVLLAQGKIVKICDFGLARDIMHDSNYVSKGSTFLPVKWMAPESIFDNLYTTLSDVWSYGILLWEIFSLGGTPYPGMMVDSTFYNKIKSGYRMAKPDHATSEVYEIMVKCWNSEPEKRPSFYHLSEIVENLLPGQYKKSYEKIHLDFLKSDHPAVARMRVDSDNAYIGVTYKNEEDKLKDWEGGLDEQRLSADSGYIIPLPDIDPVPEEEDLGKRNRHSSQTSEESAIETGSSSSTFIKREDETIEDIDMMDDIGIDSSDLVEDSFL
DNA dC->dU-editing enzyme APOBEC-3G, sequence (Q9HC16 whole entry): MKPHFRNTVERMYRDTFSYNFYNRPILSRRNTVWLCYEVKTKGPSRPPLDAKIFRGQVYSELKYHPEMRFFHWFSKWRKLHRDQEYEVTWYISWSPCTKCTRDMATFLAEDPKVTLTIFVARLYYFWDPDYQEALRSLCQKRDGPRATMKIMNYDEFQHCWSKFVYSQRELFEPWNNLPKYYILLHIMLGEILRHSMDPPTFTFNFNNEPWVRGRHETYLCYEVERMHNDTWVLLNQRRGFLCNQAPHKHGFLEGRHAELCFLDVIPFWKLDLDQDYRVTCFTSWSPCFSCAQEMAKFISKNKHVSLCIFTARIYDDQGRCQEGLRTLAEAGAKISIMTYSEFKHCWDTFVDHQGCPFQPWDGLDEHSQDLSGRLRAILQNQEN
Calcium/calmodulin-dependent protein kinase type II subunit alpha, sequence (Q9UQM7 whole entry): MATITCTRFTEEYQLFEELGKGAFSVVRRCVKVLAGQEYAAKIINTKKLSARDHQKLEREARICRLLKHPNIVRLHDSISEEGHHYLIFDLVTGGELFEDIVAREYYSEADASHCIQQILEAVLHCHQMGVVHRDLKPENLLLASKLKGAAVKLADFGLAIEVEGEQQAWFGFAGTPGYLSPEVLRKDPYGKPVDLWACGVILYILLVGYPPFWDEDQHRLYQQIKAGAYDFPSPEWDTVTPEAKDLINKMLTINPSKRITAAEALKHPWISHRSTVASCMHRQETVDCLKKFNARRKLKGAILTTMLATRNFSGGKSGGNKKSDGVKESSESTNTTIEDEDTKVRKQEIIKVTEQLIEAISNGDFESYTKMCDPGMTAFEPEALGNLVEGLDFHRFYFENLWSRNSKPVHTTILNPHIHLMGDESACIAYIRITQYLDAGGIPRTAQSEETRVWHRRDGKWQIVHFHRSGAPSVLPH
Mitogen-activated protein kinase kinase kinase kinase 4, sequence (O95819 whole entry): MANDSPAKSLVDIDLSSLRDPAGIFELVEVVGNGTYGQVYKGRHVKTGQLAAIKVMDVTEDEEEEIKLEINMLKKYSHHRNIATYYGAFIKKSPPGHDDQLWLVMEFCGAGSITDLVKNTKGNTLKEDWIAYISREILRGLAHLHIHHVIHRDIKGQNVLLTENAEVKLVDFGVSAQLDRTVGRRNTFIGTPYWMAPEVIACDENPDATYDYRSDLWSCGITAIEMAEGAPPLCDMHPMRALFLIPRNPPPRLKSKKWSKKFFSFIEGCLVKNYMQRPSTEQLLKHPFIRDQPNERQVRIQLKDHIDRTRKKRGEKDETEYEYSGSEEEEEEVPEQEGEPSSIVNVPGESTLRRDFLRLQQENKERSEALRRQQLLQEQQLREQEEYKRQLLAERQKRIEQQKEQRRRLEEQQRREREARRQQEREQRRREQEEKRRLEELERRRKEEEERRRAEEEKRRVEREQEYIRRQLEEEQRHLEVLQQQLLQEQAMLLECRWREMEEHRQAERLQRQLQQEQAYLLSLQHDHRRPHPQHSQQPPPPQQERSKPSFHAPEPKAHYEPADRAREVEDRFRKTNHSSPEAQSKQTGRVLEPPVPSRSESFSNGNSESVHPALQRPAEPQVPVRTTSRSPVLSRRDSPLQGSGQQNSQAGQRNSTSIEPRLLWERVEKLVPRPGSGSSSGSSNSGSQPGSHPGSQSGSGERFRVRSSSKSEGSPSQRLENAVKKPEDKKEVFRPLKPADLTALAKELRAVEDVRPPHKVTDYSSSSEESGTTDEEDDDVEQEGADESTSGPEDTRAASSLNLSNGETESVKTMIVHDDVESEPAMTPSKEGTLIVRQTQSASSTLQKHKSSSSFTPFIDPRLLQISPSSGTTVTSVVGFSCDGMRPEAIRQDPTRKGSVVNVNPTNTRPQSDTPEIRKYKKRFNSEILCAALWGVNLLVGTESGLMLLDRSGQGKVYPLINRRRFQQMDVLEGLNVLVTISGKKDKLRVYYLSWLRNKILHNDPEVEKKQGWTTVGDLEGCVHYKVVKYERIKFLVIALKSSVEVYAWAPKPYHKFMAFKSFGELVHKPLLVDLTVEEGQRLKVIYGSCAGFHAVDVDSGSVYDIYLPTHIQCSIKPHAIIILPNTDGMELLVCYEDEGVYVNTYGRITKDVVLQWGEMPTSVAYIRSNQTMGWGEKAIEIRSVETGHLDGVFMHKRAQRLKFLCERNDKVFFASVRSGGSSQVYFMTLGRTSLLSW
Fibroblast growth factor receptor 1, sequence (P11362 whole entry): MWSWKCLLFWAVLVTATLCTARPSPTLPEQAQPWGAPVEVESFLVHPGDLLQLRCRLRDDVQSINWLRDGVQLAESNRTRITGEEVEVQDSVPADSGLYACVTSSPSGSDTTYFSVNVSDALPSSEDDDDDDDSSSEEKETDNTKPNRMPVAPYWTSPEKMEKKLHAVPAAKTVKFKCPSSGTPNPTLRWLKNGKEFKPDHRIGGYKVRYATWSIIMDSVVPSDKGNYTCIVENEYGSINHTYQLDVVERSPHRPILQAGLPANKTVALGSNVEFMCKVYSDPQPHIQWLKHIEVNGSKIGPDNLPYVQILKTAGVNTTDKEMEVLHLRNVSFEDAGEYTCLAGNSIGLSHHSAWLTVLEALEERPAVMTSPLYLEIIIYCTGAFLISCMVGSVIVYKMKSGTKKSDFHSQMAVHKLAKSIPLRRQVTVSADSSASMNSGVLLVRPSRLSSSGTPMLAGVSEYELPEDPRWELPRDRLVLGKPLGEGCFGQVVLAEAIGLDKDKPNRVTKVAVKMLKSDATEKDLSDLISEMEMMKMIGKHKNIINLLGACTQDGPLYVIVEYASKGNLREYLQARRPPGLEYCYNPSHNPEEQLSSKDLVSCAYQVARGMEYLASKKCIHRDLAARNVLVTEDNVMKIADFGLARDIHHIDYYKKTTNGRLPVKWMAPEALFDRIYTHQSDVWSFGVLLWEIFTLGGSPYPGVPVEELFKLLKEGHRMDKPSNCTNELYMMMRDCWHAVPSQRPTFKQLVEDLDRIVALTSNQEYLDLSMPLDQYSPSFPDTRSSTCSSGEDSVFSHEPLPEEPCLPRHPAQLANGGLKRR
Dual specificity protein kinase CLK4, sequence (Q9HAZ1 whole entry): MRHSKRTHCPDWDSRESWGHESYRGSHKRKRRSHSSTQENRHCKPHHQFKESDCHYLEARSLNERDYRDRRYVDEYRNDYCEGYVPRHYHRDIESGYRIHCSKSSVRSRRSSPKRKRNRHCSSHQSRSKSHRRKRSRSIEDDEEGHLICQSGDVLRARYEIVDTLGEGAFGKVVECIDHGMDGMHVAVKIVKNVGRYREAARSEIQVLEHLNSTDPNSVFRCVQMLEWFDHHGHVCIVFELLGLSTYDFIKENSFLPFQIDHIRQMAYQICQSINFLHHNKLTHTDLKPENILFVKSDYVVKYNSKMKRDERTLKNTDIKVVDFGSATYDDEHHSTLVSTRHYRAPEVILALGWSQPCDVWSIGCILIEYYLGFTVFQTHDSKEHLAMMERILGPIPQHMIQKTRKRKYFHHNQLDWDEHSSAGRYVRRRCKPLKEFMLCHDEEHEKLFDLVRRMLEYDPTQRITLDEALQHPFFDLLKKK
Mitogen-activated protein kinase 8, sequence (P45983 whole entry): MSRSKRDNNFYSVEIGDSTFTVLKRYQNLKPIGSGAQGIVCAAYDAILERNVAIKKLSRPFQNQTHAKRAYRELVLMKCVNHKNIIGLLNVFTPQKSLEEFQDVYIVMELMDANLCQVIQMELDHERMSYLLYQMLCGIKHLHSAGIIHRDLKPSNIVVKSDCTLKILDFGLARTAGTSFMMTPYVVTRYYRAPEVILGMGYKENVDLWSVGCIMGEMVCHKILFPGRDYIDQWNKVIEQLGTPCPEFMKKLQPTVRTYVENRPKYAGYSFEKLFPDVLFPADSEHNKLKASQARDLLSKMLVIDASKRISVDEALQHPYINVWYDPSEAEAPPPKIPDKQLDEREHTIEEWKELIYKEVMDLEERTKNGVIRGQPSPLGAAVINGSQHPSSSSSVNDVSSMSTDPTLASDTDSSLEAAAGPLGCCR

Compound: O=C1C=C(O)c2c(O)cc(O)c(O)c2C1=O
- EC50 [1]: 1.07 µM (inconclusive)

Compound: CC1(C)C=C2C(=NN(c3ccccc3)C(N)=C2C#N)CO1
- EC50 (Protein RecA): 0.297 µM (active)
- IC50 (Caspase-3): 1.09 µM (active)
- AC50 (Caspase-6): 1.07 µM (active)

Compound: Cc1ccc(-c2cc3nc(Br)cnc3[nH]2)cc1
- Ki [2]: > 3.98 µM (inactive)
- Ki [3]: > 5.01 µM (inactive)
- Ki [4]: > 6.31 µM (inactive)
- Ki [5]: > 3.98 µM (inactive)
- Ki [6]: > 3.98 µM (inactive)
- Ki (LIM domain kinase 1): > 3.16 µM (inactive)
- Ki [7]: > 2.51 µM (inactive)
- Ki [8]: > 1.26 µM (inactive)
- Ki [9]: 0.1 µM (active)
- Ki [10]: > 5.01 µM (inactive)
- Ki [11]: > 2.51 µM (inactive)
- Ki [12]: > 7.94 µM (inactive)

Compound: CC(=O)N(C1=C(Cl)C(=O)c2ccccc2C1=O)c1ccc(C(=O)O)cc1
- IC50 [13]: 8.03 µM (active)
- IC50 [14]: 5.99 µM (active)

Source: ChEMBL document CHEMBL1201862, “PubChem BioAssay data set” (2004)
